In paper PMC6100079, “Design, Synthesis, and Evaluation of Homochiral Peptides Containing Arginine and Histidine as Molecular Transporters” (Molecules : A Journal of Synthetic Chemistry and Natural …, 2018):
Ends that are not written are not given here. Peptide text beside a SMILES is read from it. * marks the point of attachment. Oleoyl = CCCCCCCC/C=C\CCCCCCCC(=O)*; HOOC(CH2)6CO = O=C(O)CCCCCCC(=O)*; Palmitoyl = CCCCCCCCCCCCCCCC(=O)*; Myristoyl = CCCCCCCCCCCCCC(=O)*; Lauroyl = CCCCCCCCCCCC(=O)*

Legend:
[1] = tested on: human ovarian adenocarcinoma (SK-OV-3) cells; test: Cytotoxicity (MTS proliferation assay) of peptides in SK-OV-3 cells; format: cell-based
Method: (§1) All bioassays were performed in triplicate.
(§2) The linear and cyclic peptides at concentrations (5, 10, 25, 50 and 100 µM) were added to the cells and incubated at 37 °C with 5% carbon dioxide for 72 h. After 72 h of incubation, the pH of media were tested. […] Then 20 µL of MTS reagent was added to each well. […] The […] of the formazan product was measured at 490 nm using a Spectra Max M2 microplate spectrophotometer. The percentage of cell survival was calculated as [(OD value of cells treated with the test mixture of compounds) − (OD value of culture medium)]/[(OD value of control cells) − (OD value of culture medium)] × 100%.

[2] = tested on: human leukemia cancer cell line (CCRF-CEM); test: Cytotoxicity (MTS proliferation assay) of peptides in CCRF-CEM cells; format: cell-based
Method: as §1, §2

CCRF-CEM cells = test: Antiproliferative assay of anticancer drugs using C20-(HR)4 in CCRF-CEM cells; settings: drug 5 µM + C20-(HR)4 50 µM, 72 h, vs drug alone
SK-OV-3 cells = test: Antiproliferative assay of anticancer drugs using C20-(HR)4 in SK-OV-3 cells; format: cell-based, human; settings: SK-OV-3 (for doxorubicin, epirubicin per b1 and b46; not restated for the 1.5 fold sentence); drug 5 µM + C20-(HR)4 50 µM; 72 h; vs drug alone
Method: as §1

[3] = SK-OV-3, up to / at 50 µM peptide

| Molecule | cytotoxicity (in words) [1, 3] | cytotoxicity (in words) ([2]; up to / at 50 µM peptide) | cytotoxicity (in words) ([1]; SK-OV-3, 100 µM peptide) | cytotoxicity (in words) ([2]; 100 µM peptide) | further results |
| --- | --- | --- | --- | --- | --- |
| CCCCCCCCCCCCCCCC(=O)N[C@@H](Cc1c[nH]cn1)C(=O)N[C@@H](CCCNC(=N)N)C(=O)N[C@@H](Cc1c[nH]cn1)C(=O)N[C@@H](CCCNC(=N)N)C(=O)N[C@@H](Cc1c[nH]cn1)C(=O)N[C@@H](CCCNC(=N)N)C(=O)N[C@@H](Cc1c[nH]cn1)C(=O)N[C@@H](CCCNC(=N)N)C(=O)O [C16-(HR)4] (Palmitoyl-HRHRHRHR-OH) | significant reduction in the cell viability | significant reduction in the cell viability | – | – | reduction in cell viability ([1]; SK-OV-3 (sentence speaks of both cell lines), 50 and 100 µM peptide, respectively, 72 h, MTS): 35–70%; cytotoxic effect / reduction of proliferation ([1]; SK-OV-3, 10 µM peptide, 72 h, MTS): 0%; reduction of proliferation ([1]; SK-OV-3, 50 µM peptide): 11%; cytotoxic effect ([2]; 10 µM peptide, 72 h, MTS): 0% |
| CCCCCCCCCCCCCC(=O)N[C@@H](Cc1c[nH]cn1)C(=O)N[C@@H](CCCNC(=N)N)C(=O)N[C@@H](Cc1c[nH]cn1)C(=O)N[C@@H](CCCNC(=N)N)C(=O)N[C@@H](Cc1c[nH]cn1)C(=O)N[C@@H](CCCNC(=N)N)C(=O)N[C@@H](Cc1c[nH]cn1)C(=O)N[C@@H](CCCNC(=N)N)C(=O)O [C14-(HR)4] (Myristoyl-HRHRHRHR-OH) | not toxic | not toxic | mild cytotoxicity | mild cytotoxicity | cytotoxicity (in words) ([1]; SK-OV-3, up to / at 50 µM peptide, listed as C14): did not show cytotoxicity; cytotoxicity (in words) ([2]; up to / at 50 µM peptide, listed as C14): did not show cytotoxicity |
| CC(=O)O[C@H]1C(=O)[C@@]2(C)[C@H]([C@H](OC(=O)c3ccccc3)[C@]3(O)C[C@H](OC(=O)[C@H](O)[C@@H](NC(=O)c4ccccc4)c4ccccc4)C(C)=C1C3(C)C)[C@]1(OC(C)=O)CO[C@@H]1C[C@@H]2O [paclitaxel] | – | – | – | – | improvement of the drug's anti-proliferating potency by C20-(HR)4 (CCRF-CEM cells): did not improve |
| N=C(N)NCCC[C@H](NC(=O)[C@H](Cc1c[nH]cn1)NC(=O)[C@H](CCCNC(=N)N)NC(=O)[C@H](Cc1c[nH]cn1)NC(=O)[C@H](CCCNC(=N)N)NC(=O)[C@H](Cc1c[nH]cn1)NC(=O)[C@H](CCCNC(=N)N)NC(=O)[C@H](Cc1c[nH]cn1)NC(=O)CCCCCCC(=O)O)C(=O)O [C8-(HR)4] ({HOOC(CH2)6CO}-HRHRHRHR-OH) | not toxic | not toxic | mild cytotoxicity | mild cytotoxicity | cytotoxicity (in words) ([1]; SK-OV-3, up to / at 50 µM peptide, listed as C8): did not show cytotoxicity; cytotoxicity (in words) ([2]; up to / at 50 µM peptide, listed as C8): did not show cytotoxicity |
| CCCCCCCC/C=C\CCCCCCCC(=O)N[C@@H](Cc1c[nH]cn1)C(=O)N[C@@H](CCCNC(=N)N)C(=O)N[C@@H](Cc1c[nH]cn1)C(=O)N[C@@H](CCCNC(=N)N)C(=O)N[C@@H](Cc1c[nH]cn1)C(=O)N[C@@H](CCCNC(=N)N)C(=O)N[C@@H](Cc1c[nH]cn1)C(=O)N[C@@H](CCCNC(=N)N)C(=O)O [C18-(HR)4] (Oleoyl-HRHRHRHR-OH) | not toxic | not toxic | mild cytotoxicity | mild cytotoxicity | cytotoxicity (in words) ([1]; SK-OV-3, up to / at 50 µM peptide, listed as C18): did not show cytotoxicity; cytotoxicity (in words) ([2]; up to / at 50 µM peptide, listed as C18): did not show cytotoxicity |
| CCCCCCCCCCCC(=O)N[C@@H](Cc1c[nH]cn1)C(=O)N[C@@H](CCCNC(=N)N)C(=O)N[C@@H](Cc1c[nH]cn1)C(=O)N[C@@H](CCCNC(=N)N)C(=O)N[C@@H](Cc1c[nH]cn1)C(=O)N[C@@H](CCCNC(=N)N)C(=O)N[C@@H](Cc1c[nH]cn1)C(=O)N[C@@H](CCCNC(=N)N)C(=O)O [C12-(HR)4] (Lauroyl-HRHRHRHR-OH) | not toxic | not toxic | mild cytotoxicity | mild cytotoxicity | cytotoxicity (in words) ([1]; SK-OV-3, up to / at 50 µM peptide, listed as C12): did not show cytotoxicity; cytotoxicity (in words) ([2]; up to / at 50 µM peptide, listed as C12): did not show cytotoxicity |
| COc1cc([C@@H]2c3cc4c(cc3[C@@H](O[C@@H]3O[C@@H]5CO[C@@H](C)O[C@H]5[C@H](O)[C@H]3O)[C@H]3COC(=O)[C@H]23)OCO4)cc(OC)c1O [etoposide] | – | – | – | – | improvement of the drug's anti-proliferation potency / toxicity upon loading (physical mixture) with C20-(HR)4 (SK-OV-3 cells): one and half; improvement of the drug's anti-proliferating potency by C20-(HR)4 (CCRF-CEM cells): did not improve |
| Ac-HRHRHRHR [C2-(HR)4] | not toxic | not toxic | – | – | – |
